Assay results reported in PMC3705412, “PTP1B Inhibitory and Anti-Inflammatory Effects of Secondary Metabolites Isolated from the Marine-Derived Fungus Penicillium sp. JF-55” (Marine Drugs, 2013).

Experiments:
Type in all cases: cell-based, murine (C57BL/6 mice)
[1] = tested on: IL-1β production in murine peritoneal macrophages; assay: IL-1β production in LPS-stimulated macrophages, ELISA; details: Mus musculus, Peritoneal macrophage; pre-treated 12 h, LPS 1 μg/mL 18 h
Protocol: C57BL/6 mice were purchased from Orient Bio Co. (Sungnam, Kyung-Kido, Korea). TG-elicited peritoneal macrophages were harvested four days after intraperitoneal (i.p.) injection of 3 mL of TG [37]. Peritoneal lavage was performed using 8 mL of Hanks’ Balanced Salt Solution containing 10 U/mL heparin. The cells were distributed in Roswell Park Memorial Institute medium (RPMI) supplemented with 10% heat-inactivated FBS, in 6-well tissue culture plates (5 × 10^6 cells/mL). The level of PGE2, TNF-α or IL-1β present in each sample was determined using a commercially available kit from R & D Systems. The assay was performed according to the manufacturer’s instructions. Briefly, murine peritoneal macrophages were cultured in 24-well plates, pre-incubated for 12 h with different concentrations of compounds 1–3, and then stimulated for 18 h with LPS. The cell culture supernatants were then immediately collected after treatment and centrifuged at 13,000× g for 2 min to remove particulate matter. The medium was added to a 96-well plate pre-coated with affinity-purified PGE2-specific polyclonal antibodies or the medium was added to a 96-well plate pre-coated with affinity-purified polyclonal antibodies that were specific to mouse TNF-α or IL-1β. An enzyme-linked polyclonal antibody specific for PGE2, mouse TNF-α or IL-1β was added to the wells for 20 h, followed by a final wash to remove any unbound antibody-enzyme reagent. A substrate solution was added, and the intensity of the color produced, which was measured at 450 nm (the correction wavelength was set at 540 nm or 570 nm), was proportional to the amount of PGE2, TNF-α or IL-1β present.

iNOS = assay: Western blotting of iNOS protein expression in LPS-stimulated macrophages; details: pre-treatment 12 h, LPS 1 μg/mL 18 h
Protocol: Figure 3 The effects of penstyrylpyrone (1) (A), anhydrofulvic acid (2) (B), and citromycetin (3) (C) on the protein expression of iNOS and COX-2 in murine peritoneal macrophages stimulated with LPS. Murine peritoneal macrophages were pre-treated for 12 h at the indicated compound concentrations and stimulated for 18 h with LPS (1 μg/mL). Western blotting analysis was performed, and the representative blots of three independent experiments are shown.
C57BL/6 mice were purchased from Orient Bio Co. (Sungnam, Kyung-Kido, Korea). TG-elicited peritoneal macrophages were harvested four days after intraperitoneal (i.p.) injection of 3 mL of TG [37]. Peritoneal lavage was performed using 8 mL of Hanks’ Balanced Salt Solution containing 10 U/mL heparin. The cells were distributed in Roswell Park Memorial Institute medium (RPMI) supplemented with 10% heat-inactivated FBS, in 6-well tissue culture plates (5 × 10^6 cells/mL).
(§1) Western blotting analysis was performed by lysing the cells in 20 mM Tris-HCl buffer (pH 7.4) containing a protease inhibitor mixture (0.1 mM PMSF, 5 mg/mL aprotinin, 5 mg/mL pepstatin A, and 1 mg/mL chymostatin). The protein concentration was determined using a Lowry protein assay kit (P5626; Sigma Chemical Co., St. Louis, MO, USA). […]

NF-κB (p65) = assay: Western blotting of NF-κB (p65) nuclear translocation in LPS-stimulated macrophages; details: pre-treatment 12 h, LPS 1 μg/mL 1 h
Protocol: Figure 5 The effects of penstyrylpyrone (1) on the protein expression level of IκB-α phosphorylation, degradation of IκB-α (A), NF-κB translocation (B), and NF-κB DNA binding activity (C) in murine peritoneal macrophages. Murine peritoneal macrophages were pre-treated for 12 h at the indicated concentrations of penstyrylpyrone (1), and stimulated for 1 h with LPS (1 μg/mL). Western blotting analysis of IκB-α and p-IκB-α in the cytoplasm and NF-κB in the nucleus (A, B) were performed. A commercially available NF-κB ELISA (Active Motif) was used to test the nuclear extracts and to determine the degree of NF-κB binding (C). […]
(§2) Murine peritoneal macrophages were homogenized (1:20, w:v) in PER-Mammalian Protein Extraction buffer (Pierce Biotechnology, Rockford, IL, USA) containing freshly added protease inhibitor cocktail I (EMD Biosciences, San Diego, CA, USA) and 1 mM phenylmethylsulfonyl fluoride (PMSF). […] The protein concentration was determined using the bicinchoninic acid (BCA) protein assay kit.
as §1

NF-κB = assay: DNA-binding activity of NF-κB in nuclear extracts (TransAM kit); details: pre-treatment 12 h, LPS 1 μg/mL 1 h
Protocol: Figure 5 The effects of penstyrylpyrone (1) on the protein expression level of IκB-α phosphorylation, degradation of IκB-α (A), NF-κB translocation (B), and NF-κB DNA binding activity (C) in murine peritoneal macrophages. Murine peritoneal macrophages were pre-treated for 12 h at the indicated concentrations of penstyrylpyrone (1), and stimulated for 1 h with LPS (1 μg/mL). Western blotting analysis of IκB-α and p-IκB-α in the cytoplasm and NF-κB in the nucleus (A, B) were performed. A commercially available NF-κB ELISA (Active Motif) was used to test the nuclear extracts and to determine the degree of NF-κB binding (C). The data represent the mean values ± SD of three experiments. *p < 0.05 compared with the group treated with LPS.
C57BL/6 mice were purchased from Orient Bio Co. (Sungnam, Kyung-Kido, Korea). […]
as §2
The DNA-binding activity of NF-κB in the nuclear extracts was measured using the TransAM kit (Active Motif, Carlsbad, CA, USA) according to the manufacturer’s instructions.

[2] = tested on: anti-oxidant response element (ARE); assay: ARE-luciferase activation in macrophages; details: 1 h, 5% FBS
Protocol: Figure 7 The effects of penstyrylpyrone (1) on the nuclear translocation of Nrf2 (A) and anti-oxidant response element (ARE) activation (B) in murine peritoneal macrophages. Murine peritoneal macrophages were treated with 40 μM of penstyrylpyrone (1) for 15, 30, 60, 90 and 120 min. The nuclei were fractionated from the cytosol using PER-Mammalian Protein Extraction buffer. Nrf2 protein was detected using Western blotting analysis and representative blots of three independent experiments are shown. Quiescent cells transiently transfected with ARE-luciferase or control vector were incubated for 1 h with indicated concentrations of latifolin in the presence of 5% FBS. Cell lysates were assayed for luciferase activity and depicted by fold induction by normalizing the transfection efficiency and dividing the values of each experiment relative to the control. * p < 0.05 compared to the control group.

IC50 [1]: 13.5 µM
SMILES: COc1cc(/C=C/c2ccccc2)oc(=O)c1C [Penstyrylpyrone (1), penstyrylpyrone]
iNOS expression (iNOS): decreased
Nuclear p65 protein levels (NF-κB translocation) (NF-κB (p65)): gradually inhibited
NF-κB DNA-binding activity (NF-κB): impaired this activity in a concentration-dependent manner
ARE activation (luciferase) [2]: gradually increased in a dose-dependent manner
